Results reported in the supplement of paper PMC13207355.

Columns and labels:
Details in all cases: exposure time: 72 h
E31 [1] = patient-derived glioblastoma stem cells of proneural subtype; assay: phenotypic distance (Euclidean, principal components) from DMSO controls (arbitrary units); higher = stronger morphological change
E28 [2] = patient-derived glioblastoma stem cells of classical subtype; assay: as above
E57 [3] = patient-derived glioblastoma stem cells of mesenchymal subtype; assay: as above
E13 [4] = patient-derived glioblastoma stem cells of classical subtype; assay: as above
E21 [5] = patient-derived glioblastoma stem cells of mesenchymal subtype; assay: as above
E34 [6] = patient-derived glioblastoma stem cells of proneural subtype; assay: as above
FT3469 [7] = normal neural stem cell line; assay: as above
E31 [8] = assay: surviving fraction (nuclei count normalised to DMSO); higher = more cells surviving (less toxic)
E28 [9] = assay: as above
E57 [10] = assay: as above
E13 [11] = assay: as above
E21 [12] = assay: as above
E34 [13] = assay: as above
FT3469 [14] = assay: as above
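Wherever phenotypic distance (Euclidean, principal components) from DMSO controls is given: cell Painting imaging in 384-well plates, CellProfiler features reduced to at least 20 principal components, Euclidean distance versus same-plate DMSO vehicle wells (0.1% v/v), median over six images per well.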
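Wherever surviving fraction (nuclei count normalised to DMSO) is given: nuclei counted by high-content imaging of Hoechst-stained cells in laminin-coated 384-well plates, relative to 0.1% DMSO vehicle wells, with staurosporine as cell-death control.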

Clc1ccc(COC(Cn2ccnc2)c2ccc(Cl)cc2Cl)c(Cl)c1 (stereo not drawn) [Miconazole]
Details | phenotypic distance | surviving fraction
E13 [4], 4.1 nM | 0.853 | –
E13 [4], 12.3 nM | 0.53 | –
E13 [4], 37 nM | 0.487 | –
E13 [4], 111.1 nM | 0.696 | –
E13 [4], 333.3 nM | 1.05 | –
E13 [4], 1000 nM | 1.1 | –
E13 [4], 3000 nM | 2.12 | –
E13 [11], 4.1 nM | – | 0.787
E13 [11], 12.3 nM | – | 1.01
E13 [11], 37 nM | – | 0.925
E13 [11], 111.1 nM | – | 0.818
E13 [11], 333.3 nM | – | 0.709
E13 [11], 1000 nM | – | 0.814
E13 [11], 3000 nM | – | 0.539
E21 [5], 4.1 nM | 0.64 | –
E21 [5], 12.3 nM | 0.477 | –
E21 [5], 37 nM | 0.693 | –
E21 [5], 111.1 nM | 0.637 | –
E21 [5], 333.3 nM | 0.796 | –
E21 [5], 1000 nM | 1.19 | –
E21 [5], 3000 nM | 2.32 | –
E21 [12], 4.1 nM | – | 0.897
E21 [12], 12.3 nM | – | 1.05
E21 [12], 37 nM | – | 0.979
E21 [12], 111.1 nM | – | 1.01
E21 [12], 333.3 nM | – | 1.02
E21 [12], 1000 nM | – | 0.955
E21 [12], 3000 nM | – | 0.823
E28 [2], 4.1 nM | 0.619 | –
E28 [2], 12.3 nM | 0.863 | –
E28 [2], 37 nM | 0.65 | –
E28 [2], 111.1 nM | 0.493 | –
E28 [2], 333.3 nM | 0.784 | –
E28 [2], 1000 nM | 0.766 | –
E28 [2], 3000 nM | 1.23 | –
E28 [9], 4.1 nM | – | 1.09
E28 [9], 12.3 nM | – | 1.19
E28 [9], 37 nM | – | 1.06
E28 [9], 111.1 nM | – | 1.13
E28 [9], 333.3 nM | – | 1.07
E28 [9], 1000 nM | – | 0.886
E28 [9], 3000 nM | – | 0.537
E31 [1], 4.1 nM | 0.925 | –
E31 [1], 12.3 nM | 0.493 | –
E31 [1], 37 nM | 1.32 | –
E31 [1], 111.1 nM | 0.834 | –
E31 [1], 333.3 nM | 1.3 | –
E31 [1], 1000 nM | 1.07 | –
E31 [1], 3000 nM | 1.51 | –
E31 [8], 4.1 nM | – | 1
E31 [8], 12.3 nM | – | 1.04
E31 [8], 37 nM | – | 1.37
E31 [8], 111.1 nM | – | 0.936
E31 [8], 333.3 nM | – | 1.13
E31 [8], 1000 nM | – | 1.06
E31 [8], 3000 nM | – | 0.976
E34 [6], 4.1 nM | 0.501 | –
E34 [6], 12.3 nM | 0.465 | –
E34 [6], 37 nM | 0.883 | –
E34 [6], 111.1 nM | 0.636 | –
E34 [6], 333.3 nM | 0.903 | –
E34 [6], 1000 nM | 0.701 | –
E34 [6], 3000 nM | 1.2 | –
E34 [13], 4.1 nM | – | 0.9
E34 [13], 12.3 nM | – | 0.972
E34 [13], 37 nM | – | 1
E34 [13], 111.1 nM | – | 0.977
E34 [13], 333.3 nM | – | 1.01
E34 [13], 1000 nM | – | 0.981
E34 [13], 3000 nM | – | 0.82
E57 [3], 4.1 nM | 0.349 | –
E57 [3], 12.3 nM | 0.269 | –
E57 [3], 37 nM | 0.652 | –
E57 [3], 111.1 nM | 1.25 | –
E57 [3], 333.3 nM | 0.929 | –
E57 [3], 1000 nM | 1.89 | –
E57 [3], 3000 nM | 3.89 | –
E57 [10], 4.1 nM | – | 1.04
E57 [10], 12.3 nM | – | 1.09
E57 [10], 37 nM | – | 1.1
E57 [10], 111.1 nM | – | 1.06
E57 [10], 333.3 nM | – | 1.07
E57 [10], 1000 nM | – | 0.918
E57 [10], 3000 nM | – | 0.595
FT3469 [7], 4.1 nM | 0.444 | –
FT3469 [7], 12.3 nM | 0.593 | –
FT3469 [7], 37 nM | 0.461 | –
FT3469 [7], 111.1 nM | 0.559 | –
FT3469 [7], 333.3 nM | 0.587 | –
FT3469 [7], 1000 nM | 0.791 | –
FT3469 [7], 3000 nM | 2.66 | –
FT3469 [14], 4.1 nM | – | 1.17
FT3469 [14], 12.3 nM | – | 1.07
FT3469 [14], 37 nM | – | 0.966
FT3469 [14], 111.1 nM | – | 0.907
FT3469 [14], 333.3 nM | – | 0.954
FT3469 [14], 1000 nM | – | 0.875
FT3469 [14], 3000 nM | – | 0.492
